Molecules are shown by their SMILES. Peptide text beside a SMILES is read from it. * marks the point of attachment. Geranylgeranyl = CC(C)=CCC/C(C)=C/CC/C(C)=C/CC/C(C)=C/C*; X1 = O=C(O)c1cc(C(=O)*)ccc1-c1c2ccc(=O)cc-2oc2cc(O)ccc12; Pent4ynoyl = C#CCCC(=O)*

Type in all cases: ADME, cell-based
Data set [1] deals with HeLa. The data set can be described thus: Cellular uptake in human HeLa cells assessed as nuclear localization at 1 uM after 2 hrs by confocal laser scanning microscopy.
The subject of data set [2] is HeLa. Put plainly: Cellular uptake in human HeLa cells at 1 uM after 2 hrs by confocal laser scanning microscopy.
Data set [3] deals with HeLa. Put plainly: Cellular uptake in human HeLa cells at 1 to 5 uM treated for 1 hr followed by washout measured after 1 hr by flow cytometry.

For `C#CCCC(=O)N[C@@H](CCCCNC(C)=O)C(=O)N[C@@H](C)C(=O)N[C@@H](CCCCN)C(=O)N[C@@H](CCCCN)C(=O)N[C@@H](CO)C(=O)N[C@@H](CCCNC(=N)N)C(=O)N[C@@H](CCCNC(=N)N)C(=O)N[C@@H](CSC/C=C(\C)CC/C=C(\C)CC/C=C(\C)CCC=C(C)C)C(N)=O` (Pent4ynoyl-K(Ac)AKKSRRC(Geranylgeranyl)-NH2), the Drug uptake result in data set [1] and in data set [2] was “Active” in each case.
Consider `C#CCCC(=O)N[C@@H](CCCCNC(=O)c1ccc(-c2c3ccc(=O)cc-3oc3cc(O)ccc23)c(C(=O)O)c1)C(=O)N[C@@H](C)C(=O)N[C@@H](CCCCN)C(=O)N[C@@H](CCCCN)C(=O)N[C@@H](CO)C(=O)N[C@@H](CCCNC(=N)N)C(=O)N[C@@H](CCCNC(=N)N)C(=O)N[C@@H](CSC/C=C(\C)CC/C=C(\C)CC/C=C(\C)CCC=C(C)C)C(N)=O` (Pent4ynoyl-K(X1)AKKSRRC(Geranylgeranyl)-NH2), for which the Drug uptake entry in data set [1] is recorded as “Not Active”; in data set [2] it was “Active”; in data set [3] it was “Active”.
